According to ChEMBL document CHEMBL1201862, “PubChem BioAssay data set” (2004):
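In this assay, cells in 96-well plates receive the compound at five concentrations for 48 hours. Endpoints are linearly interpolated between the surrounding concentrations. Abbreviation: GI50, concentration required for 50% inhibition of growth.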 Active and inactive are the calls of the source. No stated cut-off is given here; in the data, active = GI50 up to about 1.1 µM and inactive = higher.

How the values were obtained:
Test in all cases: NCI anticancer screen, dose series, 48 h
HCT-116 = test system: HCT-116
ACHN = test system: ACHN
RPMI-8226 = test system: RPMI-8226
SNB-19 = test system: SNB-19
MDA-MB-435 = test system: MDA-MB-435
HOP-62 = test system: HOP-62
SN12C = test system: SN12C
NCI-H460 = test system: NCI-H460
HT-29 = test system: HT-29
SNB-75 = test system: SNB-75
OVCAR-3 = test system: OVCAR-3
HCT-15 = test system: HCT-15
M14 = test system: M14
MCF7 = test system: MCF7
HCC 2998 = test system: HCC 2998
NCI-H23 = test system: NCI-H23
SF-268 = test system: SF-268
A498 = test system: A498
UACC-62 = test system: UACC-62
Malme-3M = test system: Malme-3M
NCI-H226 = test system: NCI-H226
HOP-92 = test system: HOP-92
NCI/ADR-RES = test system: NCI/ADR-RES
CCRF-CEM = test system: CCRF-CEM
SK-MEL-2 = test system: SK-MEL-2
UACC-257 = test system: UACC-257
OVCAR-5 = test system: OVCAR-5
MDA-MB-231 = test system: MDA-MB-231
UO-31 = test system: UO-31
TK-10 = test system: TK-10
CAKI-1 = test system: CAKI-1
PC-3 = test system: PC-3
EKVX = test system: EKVX
IGROV-1 = test system: IGROV-1
HL-60 = test system: HL-60
Hs-578T = test system: Hs-578T
SK-MEL-5 = test system: SK-MEL-5
SF-539 = test system: SF-539
BT-549 = test system: BT-549
786-0 = test system: 786-0
K562 = test system: K562
MOLT-4 = test system: MOLT-4
RXF 393 = test system: RXF 393
OVCAR-8 = test system: OVCAR-8
KM12 = test system: KM12
U-251 = test system: U-251
OVCAR-4 = test system: OVCAR-4
DU-145 = test system: DU-145
SW-620 = test system: SW-620
COLO 205 = test system: COLO 205
A549 = test system: A549
LOX IMVI = test system: LOX IMVI
SF-295 = test system: SF-295
MDA-N = test system: MDA-N
NCI-H522 = test system: NCI-H522
SK-OV-3 = test system: SK-OV-3
T47D = test system: T47D
SK-MEL-28 = test system: SK-MEL-28
SR = test system: SR

`O=[N+]([O-])C(=C/c1cccs1)/C(=C\c1cccs1)[N+](=O)[O-]` was tested, and the GI50 (HCT-116) was 1110 nM (active), the GI50 (ACHN) was 543 nM (active) and the GI50 (RPMI-8226) was 267 nM (active). For the same compound, the GI50 (SNB-19) was 1980 nM (inactive), the GI50 (MDA-MB-435) was 441 nM (active) and the GI50 (HOP-62) was 2470 nM (inactive). For the same compound, the GI50 (SN12C) was 547 nM (active), the GI50 (NCI-H460) was 597 nM (active) and the GI50 (HT-29) was 1120 nM (inactive). For the same compound, the GI50 (SNB-75) was 9460 nM (inactive), the GI50 (OVCAR-3) was 1850 nM (inactive) and the GI50 (HCT-15) was 199 nM. For the same compound, the GI50 (M14) was 1040 nM (active), the GI50 (MCF7) was 676 nM (active) and the GI50 (HCC 2998) was 1210 nM (inactive). For the same compound, the GI50 (NCI-H23) was 787 nM (active), the GI50 (SF-268) was 861 nM (active) and the GI50 (A498) was 1640 nM (inactive). For the same compound, the GI50 (UACC-62) was 778 nM (active), the GI50 (Malme-3M) was 1030 nM (active) and the GI50 (NCI-H226) was 2770 nM (inactive). The GI50 (HOP-92) was 802 nM (active), the GI50 (NCI/ADR-RES) was 540 nM (active) and the GI50 (CCRF-CEM) was 26.3 nM (active). For the same compound, the GI50 (SK-MEL-2) was 1750 nM (inactive), the GI50 (UACC-257) was 1290 nM (inactive) and the GI50 (OVCAR-5) was 1680 nM (inactive). For the same compound, the GI50 (MDA-MB-231) was 440 nM (active), the GI50 (UO-31) was 1200 nM (inactive) and the GI50 (TK-10) was 962 nM (active). For the same compound, the GI50 (CAKI-1) was 465 nM (active), the GI50 (PC-3) was 575 nM (active) and the GI50 (EKVX) was 2290 nM (inactive). The GI50 (IGROV-1) was 774 nM (active), the GI50 (HL-60) was 24.6 nM (active) and the GI50 (Hs-578T) was 1130 nM (inactive). For the same compound, the GI50 (SK-MEL-5) was 1080 nM (active), the GI50 (SF-539) was 212 nM (active) and the GI50 (BT-549) was 1350 nM (inactive). For the same compound, the GI50 (786-0) was 298 nM (active), the GI50 (K562) was 272 nM (active) and the GI50 (MOLT-4) was 157 nM (active). For the same compound, the GI50 (RXF 393) was 157 nM (active), the GI50 (OVCAR-8) was 342 nM (active) and the GI50 (KM12) was 2340 nM (inactive). For the same compound, the GI50 (U-251) was 397 nM (active), the GI50 (OVCAR-4) was 1870 nM (inactive) and the GI50 (DU-145) was 1430 nM (inactive). For the same compound, the GI50 (SW-620) was 348 nM (active), the GI50 (COLO 205) was 429 nM (active) and the GI50 (A549) was 2270 nM (inactive). For the same compound, the GI50 (LOX IMVI) was 209 nM (active), the GI50 (SF-295) was 1960 nM (inactive) and the GI50 (MDA-N) was 423 nM (active). For the same compound, the GI50 (NCI-H522) was 327 nM (active), the GI50 (SK-OV-3) was 2890 nM (inactive) and the GI50 (T47D) was 1680 nM (inactive). For the same compound, the GI50 (SK-MEL-28) was 395 nM (active) and the GI50 (SR) was 71.9 nM (active).
